Assay results: patent US20250074888A1, “PYRIDAZINE DERIVATIVES AS MODULATORS OF NLRP3 INFLAMMASOME AND RELATED METHODS” (Neumora Therapeutics, Inc., priority 2021, published 2025)

Columns and labels:
NLRP3 inflammasome = NLRP3 inflammasome (Homo sapiens, UniProt Q96P20); test: NLRP3 inflammasome activation in THP1 macrophages (LPS priming, nigericin), IL-1β AlphaLISA; assay type: cell-based; conditions: PMA-differentiated THP1, LPS 20 ng/ml 3 hrs, compound 1 hr, Nigericin 6.7 uM 3 hrs, supernatant
IL-6 = IL-6 release from LPS-primed, nigericin-treated THP1 macrophages, Hu IL-6 AlphaLISA; assay type: cell-based; conditions: Homo sapiens, THP-1; PMA-differentiated THP1, LPS 20 ng/ml 3 hrs, compound 1 hr, Nigericin 6.7 uM 3 hrs, supernatant

Sequence of NLRP3 inflammasome (Q96P20 whole entry): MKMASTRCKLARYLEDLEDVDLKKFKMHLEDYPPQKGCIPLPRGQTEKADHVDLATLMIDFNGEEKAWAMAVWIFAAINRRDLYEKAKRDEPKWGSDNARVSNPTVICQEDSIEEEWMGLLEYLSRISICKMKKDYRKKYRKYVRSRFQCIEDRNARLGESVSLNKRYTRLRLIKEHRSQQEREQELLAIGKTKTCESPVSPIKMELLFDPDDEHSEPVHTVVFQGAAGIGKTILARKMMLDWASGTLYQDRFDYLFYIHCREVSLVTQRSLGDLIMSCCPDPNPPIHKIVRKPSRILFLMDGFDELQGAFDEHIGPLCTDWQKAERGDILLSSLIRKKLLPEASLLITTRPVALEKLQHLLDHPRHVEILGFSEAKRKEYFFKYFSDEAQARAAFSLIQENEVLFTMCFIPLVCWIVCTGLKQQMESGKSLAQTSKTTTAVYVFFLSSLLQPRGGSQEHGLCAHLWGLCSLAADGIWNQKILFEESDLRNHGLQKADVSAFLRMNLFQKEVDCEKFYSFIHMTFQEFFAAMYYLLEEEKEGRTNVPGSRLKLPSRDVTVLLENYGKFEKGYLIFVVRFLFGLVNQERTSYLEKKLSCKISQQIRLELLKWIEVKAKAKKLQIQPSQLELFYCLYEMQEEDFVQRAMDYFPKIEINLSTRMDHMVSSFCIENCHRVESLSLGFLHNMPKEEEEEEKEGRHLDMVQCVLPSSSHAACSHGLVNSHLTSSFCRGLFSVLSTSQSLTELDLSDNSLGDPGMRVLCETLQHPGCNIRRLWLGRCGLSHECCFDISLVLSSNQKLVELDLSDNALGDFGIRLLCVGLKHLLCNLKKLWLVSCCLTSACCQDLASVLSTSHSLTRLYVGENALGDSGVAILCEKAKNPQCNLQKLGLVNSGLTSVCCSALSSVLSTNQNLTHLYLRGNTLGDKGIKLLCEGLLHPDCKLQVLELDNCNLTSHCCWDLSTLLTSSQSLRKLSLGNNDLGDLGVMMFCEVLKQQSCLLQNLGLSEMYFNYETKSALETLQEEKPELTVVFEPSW

Structure (SMILES) | IC50 (NLRP3 inflammasome) | IC50 (IL-6)
Cc1cc(N[C@@H]2CCCNC2)nnc1-c1ccc(C(F)(F)F)cc1 [compound 22] | 50 to 100 nM | > 10000 nM
CN1CCC[C@@H](Nc2ccc(-c3ccc(F)cc3C(F)(F)F)nn2)C1 [compound 130] | 10 to 50 nM | 5000 to 10000 nM
Cc1ccc(-c2nnc(N[C@@H]3CCCN(C)C3)cc2C)cc1 [compound 11] | 10 to 50 nM | 1000 to 5000 nM
Cc1cc(N(C)[C@@H]2CCCN(C)C2)nnc1-c1ccc(Cl)cc1 [compound 202] | 100 to 500 nM | > 10000 nM
Cc1cc(C(F)(F)F)c(C)cc1-c1ccc(N[C@@H]2CCCN(C)C2)nn1 [compound 141] | > 1000 nM | > 10000 nM
Cc1cc(-c2ccc(F)c(C#N)c2)nnc1N[C@@H]1CCCN(C)C1 [compound 109] | > 1000 nM | > 10000 nM
CN1CCC[C@@H](Nc2ccc(-c3ccc(Cl)cc3C(F)(F)F)nn2)C1 [compound 4] | 10 to 50 nM | 5000 to 10000 nM
CCN1CCC[C@@H](Nc2cc(C)c(-c3ccc(Cl)cc3C)nn2)C1 [compound 201] | ≤ 10 nM | > 10000 nM
Cc1cc(N(C2CC2)[C@@H]2CCCN(C)C2)nnc1-c1ccc(C(F)(F)F)cc1 [compound 193] | ≤ 10 nM | 5000 to 10000 nM
Cc1cc(N[C@@H]2CCCN(C)C2)nnc1-c1cccc(Cl)c1 [compound 43] | > 1000 nM | 5000 to 10000 nM
Cc1cc(N[C@@H]2CCCN(C)C2)nnc1-c1ccc(C(F)(F)F)cc1C(F)F [compound 165] | ≤ 10 nM | > 10000 nM
CN1CCC[C@@H](Nc2cc(C(F)(F)F)c(-c3ccc(Cl)cc3)nn2)C1 [compound 194] | ≤ 10 nM | > 10000 nM
Cc1cc(N[C@@H]2CCCN(CCF)C2)nnc1-c1ccc(F)cc1 [compound 65] | 500 to 1000 nM | > 10000 nM
Cc1cc(-c2ccc(Cl)c(F)c2)nnc1N[C@@H]1CCCN(C)C1 [compound 147] | > 1000 nM | 5000 to 10000 nM
Cc1cc(N[C@@H]2CCCN(C)C2)nnc1-c1ccc(Cl)cc1C(F)F [compound 174] | ≤ 10 nM | 5000 to 10000 nM
Cc1cc(-c2cccc(Cl)c2)nnc1N[C@@H]1CCCN(C)C1 [compound 77] | > 1000 nM | 5000 to 10000 nM
COc1cc(F)cc(C)c1-c1ccc(N[C@@H]2CCCN(C)C2)nn1 [compound 164] | > 1000 nM | > 10000 nM
Cc1cc(-c2cccc(C(C)C)c2)nnc1N[C@@H]1CCCN(C)C1 [compound 79] | > 1000 nM | > 10000 nM
Cc1cc(N(C)[C@@H]2CCN(C)C2)nnc1-c1ccc(C(F)(F)F)cc1 [compound 185] | > 1000 nM | 1000 to 5000 nM
Cc1cc(N[C@@H]2CCCN(C)C2)nnc1-c1ccc(C2CC2)cc1 [compound 93] | 10 to 50 nM | > 10000 nM
CN1CCC[C@@H](Nc2cc(C(F)(F)F)c(-c3ccc(C(F)(F)F)cc3)nn2)C1 [compound 61] | 10 to 50 nM | > 10000 nM
COc1ccc(-c2nnc(N[C@@H]3CCCN(C)C3)cc2C)cc1 [compound 32] | 100 to 500 nM | > 10000 nM
Cc1cc(-c2ccc(N[C@@H]3CCCN(C)C3)nn2)c(C)cc1F [compound 71] | 10 to 50 nM | > 10000 nM
Cc1cc(-c2ccc(F)c(F)c2)nnc1N[C@@H]1CCCN(C)C1 [compound 117] | > 1000 nM | > 10000 nM
CN1CCC[C@@H](Nc2ccc(-c3ccc(F)cc3)nn2)C1 [compound 126] | > 1000 nM | > 10000 nM
CCN1CCC[C@@H](Nc2cc(C(F)(F)F)c(-c3ccc(F)cc3)nn2)C1 [compound 195] | 10 to 50 nM | > 10000 nM
